# From patent US8304452B2, “Radical scavenger and active oxygen eliminating agent” (InBiotex Inc., priority 2005, dated 2012)
# Tests used:
# [1] = system: chicken egg chorioallantois; experiment: Vascularization-suppressing action, chicken egg chorioallantois (Example 10); type: in vivo; conditions: 10 μL in 1% methylcellulose inside ring, 37° C., 48 hours; FIG. 10
# Procedure: A ring of a 3-mm diameter was placed on a chicken egg chorioallantois on day 5 after oviposition. 10 μL of the test substance diluted with 1% methylcellulose was added inside the ring. After incubation at 37° C. for 48 hours, fat emulsion was injected into the chorioallantois. A part from which the ring was displaced was photographed. Using an image analysis software (Kurabo Industries, Ltd.), the vascular area was measured.
# [2] = system: VEGF-triggered vascularization; experiment: Vascularization-suppressing action, VEGF matrigel plug (Example 9); type: in vivo, C57BL/6 mice; conditions: 40 μM in matrigel plug containing 100 ng/mL VEGF; 6 days later; P<0.05; FIG. 9
# Procedure: 5-S-GAD was added to a matrigelplug containing 100 ng/mL VEGF, for injections into female C57BL/6 mice. 6 days later, the matrigel plug was scissored out, to assay the hemoglobin content in the matrigel. The results are shown in mean±standard deviation. Testing were done by the Student's t test (*P<0.05).
# [3] = system: galactosemic cataract model; experiment: Galactosemic cataract model, eye drops (Example 4); type: in vivo, Crj:CD(SD) IGS rats; parameters: key to Pathological findings of lens: Cataract / Pathological findings of lens: Vacuolation of lens epithelium / Pathological findings of lens: Alignment irregularity of lens cortical fiber / Pathological findings of lens: Vacuole structure in outer cortex: −: no change; ±: very slight change; +: slight change; 2+: medium change; 3+: significant change; conditions: for severity of cataract (Cotlier standard score): four times per day, n=10, mean±standard deviation; for Pathological findings of lens: Alignment irregularity of lens cortical fiber / Pathological findings of lens: Cataract / Pathological findings of lens: Vacuolation of lens epithelium / Pathological findings of lens: Vacuole structure in outer cortex: eye balls resected 28 days later; for cases with severe sugar cataract: until day 28 of eye dropping
# Procedure: 352 mg of a test substance was weighed and then dissolved in 1.1 mL of 1N NaOH (1 mol/L sodium hydroxide; manufactured by Wako Pure Chemical, Co., Ltd.). After dissolution, it was verified with a pH paper (Duotest under trade name; MACHEREY-NAGEL) that the pH was within an acceptable range (5 to 8). Subsequently, the resulting solution was divided in each volume of 0.03 mL into 30 2-ml tubes (28 such tubes for four tests per day for 7 days+2 such tubes for spare). These were immediately frozen in liquid nitrogen, and stored under freezing (preset at −85° C. within an acceptable range of −90 to −75° C.)/dark conditions. The solutions under storage were defined as stock solution at 320 mg/mL. The stock solutions could be used within 8 days after the preparation. The stock solutions outside the 8-day period after the preparation were disposed. Before eye dropping, the following preparation was done. After the tubes of the stock solution at 320 mg/mL were back to ambient temperature, 0.93 mL of physiological saline was directly added to the tubes for dilution. After preparative dilution, it was verified with a pH paper that the pH of the diluted solutions were within an acceptable range (5 to 8). The resulting eye drop was defined as 1.0% eye drop for use in administration. 0.09 mL of the 1.0% eye drop was divided in a 2-mL tube, to which 0.81 mL of physiological saline was directly added for dilution. Subsequently, it was verified with a pH paper that the pH of the diluted solution was within an acceptable range (5 to 8). The resulting eye drop was defined as 0.1% eye drop, for use in administration. Herein, eye drops of pH outside the acceptable range were never used. The 1.0% eye drop and the 0.1% eye drop practically used for administration were at pH 5.2 to 8.0 and pH 6.2 to 7.4, respectively. As the medium, physiological saline as the control substance was used as it was. Male Crj:CD(SD) IGS rats (SPF) of age 3 weeks were subjected to a 5-day quarantine period and then to an 8-day acclimatization period. By the random extraction method, the rats were grouped in 3 groups, where each group consisted of 10 rats, in a manner such that the average body weight and deviation in each group might be almost equal. After grouping, the rats were fed ad libitum with a powdery feed containing galactose at 50% [a powder feed (Lot No. 050107) of a mixture at equal amounts of CRF-1 powder feed (Lot No. 041104; manufacturer: Oriental Yeast Co., Ltd.) and galactose (D-galactose, Lot No. QYG0223, manufacturer: Yoneyama Pharmaceutical Industry, Co. Ltd.); the mixture was prepared by Oriental Yeast Co., Ltd.; abbreviated as {galactose feed}] hereinafter], as placed in a powder feeder. Additionally, the rats were fed ad libitum with drinking water. The three groups were defined as (A) medium control group, (B) 0.1% 5-S-GAD eye drop group, and (C) 1.0% 5-S-GAD eye drop group for dosing. The administration route was eye dropping as a clinically prospective route. The number of eye dropping per day was four times, while the interval between eye droppings was about 2 hours. The eye dropping was done around 9:30 am (9:00 am to 10:00 am as the defined time period), around 11:30 (11:00 am to 12:00 am as the defined time period), around 13:30 (13:00 pm to 14:00 pm as the defined time period) and around 15:30 pm (15:00 pm to 16:00 pm as the defined time period). Eye dropping was done over 28 days. On day 1, day 7, day 14, day 21 and day 28, ophthalmologic examinations were done about 30 minutes after each last eye dropping. The observation method is as follows. Right eye with eye drop application and left eye without any treatment were observed of their lenses, using a slit lamp (SL-15, Kowa Company, Ltd.). The severity of cataract was evaluated, according to the Cotlier standard (see FIG. 1 in Arch Ophthalmol., (67) 476-82, 1962, which was entitled ‘Development of galactose cataract in the rat, showing biomicroscopic front and slit view’). […]
# [4] = DPPH-scavenging activity versus TEMPOL (Example 5); type: biochemical; conditions: 60 μM DPPH, 1 to 1000 μM test substance, 5 minutes; FIG. 5
# Procedure: 5-S-GAD or TEMPOL was added to an ethanol solution of 60 μM DPPH to a final concentration of 1 to 1000 μM, for reaction at ambient temperature for 5 minutes. Subsequently, the concentration of the DPPH radical was measured via the absorbance at 517 nm. The DPPH radical concentration in a reaction solution to which PBS(−) instead of the test substance was added, was used as a control. In the same manner as in Example 2, the scavenging ratio (%) of the DPPH radical was calculated and defined as the radical-scavenging activity (see FIG. 5).
structure (smiles),measurement,setting,value
"NCCC(=O)N[C@@H](Cc1cc(O)c(O)c(SC[C@H](NC(=O)CC[C@H](N)C(=O)O)C(=O)NCC(=O)O)c1)C(=O)O [5-S-GAD, N-β-alanyl-5-S-glutathionyl-3,4-dihydroxyphenylalanine]",suppression of vascularization (vascular area),[1],suppressed vascularization significantly
same,suppression of VEGF-triggered vascularization (hemoglobin content in the matrigel),[2],suppressed significantly
same,abnormality of general states,"[3]; 0.1% and 1.0% eye drop groups, before eye dropping and about one hour after the last eye dropping during the eye dropping period",no abnormality of their general states was observed
same,severity of cataract (Cotlier standard score),"[3]; 0.1% eye drop, on day 1",0 ± 0
same,severity of cataract (Cotlier standard score),"[3]; 0.1% eye drop, on day 7",1.9 ± 0.1
same,severity of cataract (Cotlier standard score),"[3]; 0.1% eye drop, on day 14",2.5 ± 0.1
same,severity of cataract (Cotlier standard score),"[3]; 0.1% eye drop, on day 21",3.6 ± 0.1
same,severity of cataract (Cotlier standard score),"[3]; 0.1% eye drop, on day 28",3.9 ± 0.1
same,Pathological findings of lens: Alignment irregularity of lens cortical fiber,[3]; 0.1% eye drop,+
same,Pathological findings of lens: Cataract,[3]; 0.1% eye drop,2+
same,Pathological findings of lens: Vacuolation of lens epithelium,[3]; 0.1% eye drop,±
same,Pathological findings of lens: Vacuole structure in outer cortex,[3]; 0.1% eye drop,±
same,cases with severe sugar cataract,[3]; 0.1% eye drop,no case with severe sugar cataract occurred until day 28
same,severity of cataract (Cotlier standard score),"[3]; 1.0% eye drop, on day 1",0 ± 0
same,severity of cataract (Cotlier standard score),"[3]; 1.0% eye drop, on day 7",1.8 ± 0.1
same,severity of cataract (Cotlier standard score),"[3]; 1.0% eye drop, on day 14",2.4 ± 0.1
same,severity of cataract (Cotlier standard score),"[3]; 1.0% eye drop, on day 21",3.4 ± 0.1
same,severity of cataract (Cotlier standard score),"[3]; 1.0% eye drop, on day 28",3.8 ± 0.1
same,Pathological findings of lens: Alignment irregularity of lens cortical fiber,[3]; 1.0% eye drop,+
same,Pathological findings of lens: Cataract,[3]; 1.0% eye drop,2+
same,Pathological findings of lens: Vacuolation of lens epithelium,[3]; 1.0% eye drop,−
same,Pathological findings of lens: Vacuole structure in outer cortex,[3]; 1.0% eye drop,±
same,cases with severe sugar cataract,[3]; 1.0% eye drop,No case with severe sugar cataract emerged until day 28
same,pathological effect in the galactosemic rat cataract model (in words),"[3]; pathological findings, day 28",apparent ameliorating effect pathologically
same,DPPH radical-scavenging action compared with TEMPOL (in words),[4],excellent DPPH radical-scavenging action compared with TEMPOL
